In US5646249A, “Isolation and characterization of a novel chaperone protein” (The United States of America as represented by the …, priority 1994, dated 1997):

Molecular target: T1, human STCH, GST-STCH fusion protein representing STCH codons 4-471 (SEQ ID NO: 2) (Homo sapiens, UniProt P48723)
T1 construct: near full-length GST-STCH fusion protein, representing STCH codons 4-471; made in house; host or cells: E. coli HB101
T1 sequence (P48723 4-471): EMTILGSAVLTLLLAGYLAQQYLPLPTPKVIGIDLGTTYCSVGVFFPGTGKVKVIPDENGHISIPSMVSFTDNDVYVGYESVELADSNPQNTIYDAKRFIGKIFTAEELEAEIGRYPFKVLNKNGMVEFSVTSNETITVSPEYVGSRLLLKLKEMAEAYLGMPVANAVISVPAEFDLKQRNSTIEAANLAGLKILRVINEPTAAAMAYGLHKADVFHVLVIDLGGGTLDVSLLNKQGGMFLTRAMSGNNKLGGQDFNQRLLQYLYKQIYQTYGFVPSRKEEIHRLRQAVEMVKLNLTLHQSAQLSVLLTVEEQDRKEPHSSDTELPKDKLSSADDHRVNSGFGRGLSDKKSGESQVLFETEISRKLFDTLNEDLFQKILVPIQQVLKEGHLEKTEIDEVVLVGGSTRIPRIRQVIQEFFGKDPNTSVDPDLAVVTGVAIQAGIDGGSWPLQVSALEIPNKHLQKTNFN
Experiment: ATPase assay of purified GST-STCH fusion protein
Format: biochemical
Conditions: read-out: Km for the unstimulated STCH ATPase (ATP); unstimulated (no peptide), 37° C., recombinant GST-STCH codons 4-471
Description: Inspection of the primary amino acid sequence of the STCH product predicts a functional ATPase molecule. ATPase activity was tested using a GST -Stch plasmid that encoded a functional fusion protein including STCH codons 4-471 (See Table II and SEQ ID NO: 1). A preferred strategy for preparing this fusion protein is provided in Example III and a preferred strategy for performing ATPase assays is provided in Example VI. To exclude contaminating sources of ATPase, the GST leader peptide and the GST-STCH affinity-purified fusion proteins were eluted off glutathione--Sepharose beads, then purified by anion-exchange chromatography (mono Q) and the protein composition of the column fractions was analyzed by SDS--PAGE. The peak ATPase activity of the GST --STCH product coincided with fractions 11 and 12. While no measurable ATPase activity was detected in fractions 11 and 12 from the GST leader sequence. These fractions were pooled from the GST--STCH sample and ATPase activity was measured in the presence or absence of two different peptides. […] The Km for the unstimulated STCH ATPase was 2-3 μM ATP and the measured ATPase activity was linear with respect to time and concentration over the range tested. […]

Km: 2 to 3 µM
Compound: Nc1ncnc2c1ncn2[C@@H]1O[C@H](COP(=O)(O)OP(=O)(O)OP(=O)(O)O)[C@@H](O)[C@H]1O [ATP]
